Tested on: MRC 5 fibroblasts
Experiment: Cell biological test of active substance: proliferation of MRC 5 fibroblasts by quantification of cellular DNA after DAPI staining
Assay type: cell-based
Conditions: solutions containing only RC (50 μM) or only chlorite (100 μM)
Method: The MRC 5 cells are seeded at 400 cells/cm^2 in a 24 well cell culture plate. The subsequent cultivation is carried out in an incubator 37° C. and 5 vol. % CO2 in a water vapor saturated atmosphere. After 24 hours of precultivation, the culture medium is suctioned off and the cells are washed with PBS.
After 24, 48 and 72 hours, the proliferation of the cells is determined by quantification of the cellular DNA in a fluorometer (Novostar-Company: BMG Labtechnologies) after DAPI staining. Here, the increased fluorescence in the samples is equal to a proliferation of the cells.
The plate to be measured is washed once per well with 500 μl PBS and then 250 μl PBS is placed in each well. 250 μl lysis buffer are added and the cells are lysed in a shaker at the lowest setting for 30 min at RT. Subsequently, 500 μl DAPI solution is added and the plate is left to stand for a further 10 min at RT.
The plate is measured at 355 nm ex. and 460 nm em. in the Novostar. Normally, work is carried out with a gain adjustment of 1400-1600.
The multiple determinations are averaged and the error values are calculated. The data obtained is evaluated graphically.

Q: chlorite was tested. Which “effect on the growth behaviour of the fibroblasts” value did it give?
A: no effect whatsoever

— patent US8728537B2, “Compositions for improvement of wound healing” (Cytotools AG, priority 2003, dated 2014)
